From US20260041732A1, “USE OF APELIN FOR THE TREATMENT OF LYMPHEDEMA” (INSTITUT NATIONAL DE LA SANTE ET DE LA RECHERCHE MEDICALE, priority 2022, published 2026)

Assays:
C57B1/6 female mice [1] = test: Mouse model of secondary lymphedema, limb size measured using caliper; type: in vivo; settings: LV-apelin treated mice submitted to L-NAME treatment
Procedure: Mouse procedures were performed in accordance with EU and national regulation. C57B1/6 mouse were provided by Envigo. All experiments have been approved by the local branch Inserm Rangueil-Purpan of the Midi-Pyrénées ethics committee. Secondary lymphedema was established as previously described (Morfoisse et al. 2018). Briefly, lymphedema was established in the left upper limb of 6 weeks-old C57B1/6 female mice. A partial mastectomy of the second mammary gland is performed in association with axillary and brachial lymphadenectomy. Limb size was measured over time in the axillary region using caliper. Mice sustained edema for a period of 2 weeks. The day of the surgery, PBS or apelin lentiviral vector were injected in intradermic in the lymphedema limb (3 injections of 4 μL). […] For L-NAME (N^G-nitro-L-arginine methyl ester) (Sigma) treatment, L-NAME was resuspended in water (1 mg/ml) and mice were allowed to drink freely for 7 days.

C57B1/6 female mice [2] = test: Lymphangiography with FITC-Dextran in lymphedema mouse model; type: in vivo; settings: two weeks after surgery
Procedure: Two weeks after surgery, mice were anesthetized with an intraperitoneal injection of ketamine (100 mg/kg) (Zoletil 100, Virbac) and xylazine (10 mg/kg) (Rompun 2%, Bayer). FITC-Dextran ([…], 2 mg/mL, Sigma) was injected into the footpad of lymphedema and control limb. The fluorescent molecule was taken up by the lymphatics and excluded from the blood vessels. After 5 min, the skin was analyzed under the modular stereo microscope discovery. V12 stereo (Zeiss).

C57B1/6 female mice [3] = test: Evaluation of dermis fibrosis, Masson's trichrome coloration; type: in vivo, mouse; settings: lymphedema limb skin
Procedure: Dermis fibrosis was evaluated with Masson's trichrome coloration (MST-100T, Cliniscience). Skin sections were deparraffinized and tissue were stained according the manufacturer's recommendations. Images were acquired on a nanozoomer slide scanner. Dermis size quantification was performed using at least 10 measurements of the length between epidermis and hypodermis per field.

C57B1/6 female mice [4] = test: Histology of skin sections, Lyve1 and CD31 immunostaining; type: in vivo, mouse; settings: lymphedema limb skin
Procedure: Skin of lymphedema and control limb were collected 2 weeks after surgery and fixed in 10% neutral buffered formalin O/N at 4° C. Tissue are then embedded in paraffin and sectioned on a microtome. 5 μm sections were cut and placed on Superfrost Plus slides. Tissue were deparaffinized, rehydrated and antigen unmasking was realized with pH 9 Tris solution (H-3301, Vector Laboratories) 5 min three times in a microwave. After cooling, slides were washed in PBS and then blocked with 5% BSA solution at room temperature in humid chamber. Sections were incubated with primary antibodies O/N at 4° C. (Goat anti-murine Lyvel, R&D AF2125; rabbit anti-CD31, abcam Ab28364) and washed three times in PBS. Sections were incubated with the corresponding secondary antibodies conjugated to Alexa-488 or -594 for 1h at room temperature au 1/400 dilution. DNA was stained with DAPI. Slides were mounted with Dako Fluorescence Mounting Medium (S3023). Images were acquired a fluorescent inverted microscope (Leica, DMi8). Images were analysed with Fiji software.

[5] = test system: afferent collecting lymphatic vessels to the popliteal lymph node; test: Collecting vessel contraction measures (intravital imaging); type: in vivo, mouse; settings: L-NAME in drinking water 7 days
Procedure: Vessel contraction measurement of afferent collecting lymphatic vessels to the popliteal lymph node (PLN) were performed as described previously (Liao S. et al.). Briefly mice were anesthetized with an intraperitoneal injection of ketamine (100 mg/Kg) and xylazine (10 mg/kg). 6 μL of FITC-Dextran was injected into the footpad of the lower right limb. The skin is carefully removed to expose afferent collecting lymphatic vessels to the PLN. Mouse is then placed into a petri dish and onto the stage of an inverted microscope (Leica, DMi8). 4 videos of 90 sec were acquired per mice and the number of contraction and dilatation (difference between maximum and minimum diameter) was analysed using Fiji software. To assess the effect of Apelin, lentiviral vector was injected into the derm in the lower right limb 7 days before the experiment. For L-NAME study, mice were allowed to drink freely for 7 days.

[6] = test system: Human dermal lymphatic endothelial cells (HDLEC); test: Bulk RNA-sequencing, differential gene expression and GO analysis; type: cell-based; settings: compared to WT
Procedure: Human dermal lymphatic endothelial cells (HDLEC) (single donor, juvenile foreskin, Promocell, C-12216, >95% of the cells are CD31 positive and podoplanin positive) were cultured in Endothelial Cell Media MV2 (EGM-MV2, Promocell, C-22121). NIH3T3 were cultured in Dulbecco's modified Eagle's medium (DMEM, Sigma, D6429) supplemented with 10% fetal bovine serum (FBS, Gibco, 10270-06) and 1% penicillin-streptomycin. Endothelial cells were used at passage 3-6 and human fibroblasts were used at passage 4-7. Cells were cultured at 37° C. in a 5% CO2 incubator. Culture medium was changed 3 times a week, and the cells were passaged ⅓. For collecting conditioned media, NIH3T3 were grown in 10 cm dishes, after reaching confluence, medium was removed and the cells were washed once with PBS. NIH3T3 were cultured overnight in 5 mL reduced serum medium optiMEM (Gibco), the medium was then collected and used for experiments. HDLEC were treated with 50% conditioned media/50% MV2-05% FBS. Total RNA from HDLEC transduced or not with Apelin Lentivector were prepared using the RNeasy mini kit (Qiagen 74106). Total RNA were then subjected to ribosomal-RNA depleted RNA sequencing (RNA-Seq) protocol performed by Genewiz company using Illumina HiSeq, PE 2×150 configuration. Sequence reads were trimmed to remove possible adapter sequences and nucleotides with poor quality using Trimmomatic v.0.36. The trimmed reads were mapped to the Homo sapiens GRCh38 reference genome available on ENSEMBL using the STAR aligner v.2.5.2b. The STAR aligner is a splice aligner that detects splice junctions and incorporates them to help align the entire read sequences. BAM files were generated as a result of this step. Unique gene hit counts were calculated by using feature Counts from the Subread package v.1.5.2. The hit counts were summarized and reported using the gene_id feature in annotation file. Only unique reads that fell within exon regions were counted. Distribution of read counts in libraries were examined before and after normalization. The original read counts were normalized to adjust for various factors such as variations of sequencing yield between samples. These normalized read counts were used to accurately determine differentially expressed genes. Data quality assessments were performed to detect any samples that are not representative of their group, and thus, may affect the quality of the analysis. The overall similarity among samples were assessed by the Euclidean distance between samples. This method was used to examine which samples are similar/different to each other and if they fit to the expectation from the experiment design. The shorter the distance, the more closely related the samples are. Samples were then clustered by using the distance. A principal component analysis was also performed to reveal the similarity between samples based on the distance matrix. After extraction of gene hit counts, the gene hit counts table was used for downstream differential expression analysis. Using DESeq2, a comparison of gene expression between Apelin transduced LEC against non-transduced LEC was performed. The Wald test was used to generate p-values and log2 fold changes. […] The global transcriptional change across the two groups compared was visualized by a volcano plot. Each data point in the volcano plot represents a gene. The log2 fold change of each gene is represented on the x-axis and the log10 of its adjusted p-value is on the y-axis.

[7] = test system: Human dermal lymphatic endothelial cells (HDLEC); test: Immunoblotting of AKT, ERK and eNOS phosphorylation; type: cell-based; settings: conditioned media
Procedure: Human dermal lymphatic endothelial cells (HDLEC) (single donor, juvenile foreskin, Promocell, C-12216, >95% of the cells are CD31 positive and podoplanin positive) were cultured in Endothelial Cell Media MV2 (EGM-MV2, Promocell, C-22121). NIH3T3 were cultured in Dulbecco's modified Eagle's medium (DMEM, Sigma, D6429) supplemented with 10% fetal bovine serum (FBS, Gibco, 10270-06) and 1% penicillin-streptomycin. Endothelial cells were used at passage 3-6 and human fibroblasts were used at passage 4-7. Cells were cultured at 37° C. in a 5% CO2 incubator. Culture medium was changed 3 times a week, and the cells were passaged ⅓. For collecting conditioned media, NIH3T3 were grown in 10 cm dishes, after reaching confluence, medium was removed and the cells were washed once with PBS. NIH3T3 were cultured overnight in 5 mL reduced serum medium optiMEM (Gibco), the medium was then collected and used for experiments. HDLEC were treated with 50% conditioned media/50% MV2-05% FBS.
Cells were scrapped and lysed in RIPA buffer (RIPA 2X, Biotech RB4476) supplemented with phosphatase inhibitor (PhosSTOP Easypack, Roche0490687001) and protease inhibitors (protease inhibitor cocktail, Sigma Aldrich). Lysates were centrifuged at 13500 g for 10 minutes at 4° C. Supernatants were then collected and mix with Laemmli buffer containing dithiothreitol (DTT 1 mM). Protein were resolved on 4-15% SDS-PAGE gels and transferred to nitrocellulose membrane (Trans-Blot Turbo RTA transfer kit, #1704271, Biorad). Membranes were blocked for 1h at room temperature in 5% BSA-TBS-T (TBS-0.1% Tween 20) and probed with primary antibody overnight at 4° C. Antibody used are the following: Phospho AKT: AKT-p ser473 (CS #4060S), AKT: santa cruz H136 (S8312), Phospho ERK: ERK1/2-p (MAPKp42/44) (Thr202/Thr204) (cell signalling #9106), ERK ERK1/2-(MAPKp42/44) (Thr202/Thr204) (cell signalling #9102), Phospho eNOS (cell signalling #9571S), eNOS (cell signalling #5880S), E2F8 (Abcam, AB109596), VEGFR3 (RID system AF349), Phospho-VEGFR3 (Affinity AF3676), CCBE1 (Sigma SAB1402017).
After three washes in TBS-T, membranes were probed with HRP-conjugated secondary antibodies at 1/10000 dilution. Signals were visualized with chemiluminescence detection reagent (Sigma) on a Chemidoc (Biorad) digital acquisition system.

Molecule | effect on apelin benefit on lymphedema (limb diameter) (C57B1/6 female mice [1]) | lymphatic vessel morphology / remodelling (lymphangiography) (C57B1/6 female mice [2]) | fibrosis (C57B1/6 female mice [3]) | lymphatic vessel dilatation (vessel area / diameter) (C57B1/6 female mice [4]) | effect on apelin-stimulated collector dilatation [5] | expression of genes related to VEGFC maturation (ADAMTS2, CCBE1) [6] | eNOS phosphorylation ([7]; HDLEC) | AKT activation (phosphorylation) ([7]; 24 h time course) | ERK activation ([7]; 24 h time course)
COC(=O)[C@@H](N)CCCNC(=N)N[N+](=O)[O-] [L-NAME, N^G-nitro-L-arginine methyl ester] | reversed the beneficial effect of apelin on lymphedema | reverse apelin effect on lymphatic vascular network | no effect on fibrosis | inhibited | completely reversed |  |  |  | 
VEGF-C: vascular endothelial growth factor C; media containing VEGF-C used as positive control on HDLEC (protein, listed as Homo sapiens) MHLLGFFSVACSLLAAALLPGPREAPAAAAAFESGLDLSDAEPDAGEATAYASKDLEEQLRSVSSVDELMTVLYPEYWKMYKCQLRKGGWQHNREQANLNSRTEETIKFAAAHYNTEILKSIDNEWRKTQCMPREVCIDVGKEFGVATNTFFKPPCVSVYRCGGCCNSEGLQCMNTSTSYLSKTLFEITVPLSQGPKPVTISFANHTSCRCMSKLDVYRQVHSIIRRSLPATLPQCQAANKTCPTNYMWNNHICRCLAQEDFMFSSDAGDDSTDGFHDICGPNKELDEETCQCVCRAGLRPASCGPHKELDRNSCQCVCKNKLFPSQCGANREFDENTCQCVCKRTCPRNQPLNPGKCACECTESPQKCLLKGKKFHHQTCSCYRRPCTNRQKACEPGFSYSEEVCRCVPSYWKRPQMS |  |  |  |  |  | improved | observed | strong activation | strong activation
